This is an account of results in patent publication US20050058614A1, “Methods for the treatment of gray hair using cyclopentane(ene) heptan(en)oic acid amides” (Allergan, Inc., priority 2003, published 2005).

One data set has as its system eyelashes. The settings on record: Lumigan ophthalmic solution applied in the FDA approved manner; cited from earlier work.
Data set [1] in a line: untoward effects during the observation period. In kind it is in vivo, human. The settings on record: healthy person, oral, same dose as Example 1. An excerpt:
(§1) A healthy subject with normal blood pressure volunteers to take the medicine for observation on hair growth promoting activity at the same dose reported in Example 1. Before taking the medicine they have few hairs left in the frontoparietal area of the head. Three months after taking the medicine, they begin to note an increase of hair density in the affected area. […] The response to the medicine is more sensitive in areas with most recent hair loss. […] The observation is terminated at the end of six months.
A healthy person with normal blood pressure volunteers to take the medicine for the same observation as in Example 2 at the dose described above. Their hair condition is normal with no baldness. During the six month testing period, they collect in intervals the hair samples from regular daily combing. Before the testing and during the first month of testing, the hair samples collected have two types, namely completely dark brown or completely gray. At around 50 days into the testing period, a new type of hair, partly dark brown and partly gray, begins to appear in the hair samples; they represent about 3% of the gray hairs. In this subject, the gray hairs represent about 25% of their total hairs in the samples collected. It is noted that the dark brown part of the new type of hair is always associated with the lower part of the hair shaft. […]

For another data set, the system named is gray hair. The data set is described as follows: conversion of gray hair to original pigment on oral bimatoprost in human subjects. In kind it is in vivo. The text has this:
A patient began taking bimatoprost as a tablet. […] A healthy person with normal blood pressure volunteers to take the medicine for the same observation as in Example 2 at the dose described above. Their hair condition is normal with no baldness. During the six month testing period, they collect in intervals the hair samples from regular daily combing. Before the testing and during the first month of testing, the hair samples collected have two types, namely completely dark brown or completely gray. At around 50 days into the testing period, a new type of hair, partly dark brown and partly gray, begins to appear in the hair samples; they represent about 3% of the gray hairs. In this subject, the gray hairs represent about 25% of their total hairs in the samples collected. It is noted that the dark brown part of the new type of hair is always associated with the lower part of the hair shaft. This is easily identifiable because the hair follicles are distinguishable at one end of hair shafts. The quality and thickness of the new type of hair is very similar to the other types of hairs of this subject. The ratio of length of the dark brown part to that of the gray part of the new type of hair varies from 1:5 to 4:1 in the samples collected during the five-month period. This varying ratio may reflect the stages of the growth cycle of each hair follicle examined. The observation was discontinued at the end of five months.

Data set [2] concerns hair in the frontoparietal area of the head. The experiment in a line: observation on hair growth promoting activity on oral bimatoprost. In kind it is in vivo, human. Conditions: healthy person.
Text: as §1

The structures appear in SMILES notation.

Turning to `CCNC(=O)CCC/C=C\C[C@@H]1[C@@H](/C=C/[C@@H](O)CCc2ccccc2)[C@H](O)C[C@@H]1O` [bimatoprost, cyclopentane N-ethyl heptanamide-5-cis-2-(3α-hydroxy-5-phenyl-1-trans-pentenyl)-3,5-dihydroxy, [1α,2β,3α,5α]], in the data set on eyelashes, the growth of eyelashes result is recorded as “effective to increase the growth of eyelashes”. The values for the untoward effects entry in data set [1] (observation discontinued at five months) and in data set [1] (six months observation) were “No untoward effects were reported” and “does not experience any untoward effects”, respectively. For the same molecule, in the data set with gray hair (healthy person, no baldness, oral, same dose as Example 1, hair samples from daily combing), the “time until new type of hair, partly dark brown and partly gray, appears in hair samples” value was “around 50 days”. Further, the “new type of hair (partly dark brown, partly gray) as share of the gray hairs” value in the data set with gray hair (healthy person, oral, same dose as Example 1, gray hairs about 25% of total hairs) is on record as “about 3%”. The “gray hairs turned into the original pigment” value with gray hair (patient, oral tablet 2 x 100 mg per dose, 3 doses per day, four months) is “a significant portion of their gray hairs had gradually turned into the original pigment or dark brown color”. Also, in data set [2] (few hairs in frontoparietal area, same dose as Example 1), the “time until increase of hair density in the affected area is noted” value is listed as “Three”. Besides, the “colour of the newly grown hairs in the affected area” value in data set [2] (same dose as Example 1) is listed as “mostly dark brown”. Moreover, in data set [2] (same dose as Example 1, six months), the “overall increase of the hair density in the affected area” value is given as “very significant”. In data set [2] (same dose as Example 1, three to six months of the testing period), the hair cut frequency entry is reported as “increase the hair cut frequency to once a month from once every two months”.
